The record followed here is patent publication US12344610B2, “APOL1 inhibitors and methods of use” (Maze Therapeutics, Inc., priority 2022, dated 2025).

For orientation: AC50 means the concentration giving half of the maximal activity seen.

The assay has as its target T1, APOL1 G2 (Homo sapiens, UniProt O14791, DEL388-389).
T1 construct: expressed in transfected cells; host or cells: HEK293 T-REx clonal line stably expressing GCaMP6f (HEK T-REx/GCaMP6f/APOL1 G2 K6.3), doxycycline induced
T1 sequence (O14791 with tags, fused parts or gaps DEL388-389): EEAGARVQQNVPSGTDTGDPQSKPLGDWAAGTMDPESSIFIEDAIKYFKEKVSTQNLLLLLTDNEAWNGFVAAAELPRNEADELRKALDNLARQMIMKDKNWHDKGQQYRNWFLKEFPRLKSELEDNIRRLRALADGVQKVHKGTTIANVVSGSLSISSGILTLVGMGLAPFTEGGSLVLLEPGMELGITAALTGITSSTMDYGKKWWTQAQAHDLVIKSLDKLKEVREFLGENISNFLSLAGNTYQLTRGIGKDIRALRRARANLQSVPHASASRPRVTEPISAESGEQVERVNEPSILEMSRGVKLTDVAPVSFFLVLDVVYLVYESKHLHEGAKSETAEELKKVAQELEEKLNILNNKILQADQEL
The assay can be described thus: APOL1-mediated calcium transport (calcium influx) assay, HEK T-REx/GCaMP6f/APOL1 G2 K6.3 cells, FLIPR TETRA. Type of assay: cell-based. Conditions: prevention of calcium influx; geometric mean of at least 2 assay runs; † = average of a technical replicate from a single assay run. In a few lines:
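A HEK293 T-REx clone stably expressing GCaMP6f had APOL1 G2 induced with doxycycline (20 ng/mL solution added) for 6 h. Cells were then washed into Ca2+-free Tyrode's buffer (pH 7.4) and preincubated with compounds (duplicate 8-point) for 10 min at room temperature. Ca2+ injection to 5 mM final produced FLIPR GCaMP fluorescence, giving AC50 for influx inhibition (geometric mean, ≥2 runs).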
Consider `CN(C)C(=O)c1ccc(OCCN2CCC3(CC2)C(=O)Nc2ccc(Cl)cc23)cc1F` [Compound 230, 4-(2-{5-chloro-2-oxo-1,2-dihydrospiro[indole-3,4′-piperidin]-1′-yl}ethoxy)-2-fluoro-N,N-dimethylbenzamide], for which the AC50 amounted to 891 nM.
For the molecule `O=C(c1ccc(OCCN2CCC3(CC2)C(=O)Nc2ccc(Cl)cc23)cc1F)N1CCOCC1` [Compound 231, 5-chloro-1′-{2-[3-fluoro-4-(morpholine-4-carbonyl)phenoxy]ethyl}-1,2-dihydrospiro[indole-3,4′-piperidin]-2-one], the AC50 was 1020 nM.
Turning to `O=C(c1ccc(OCCN2CCC3(CC2)C(=O)Nc2ccc(Cl)cc23)cc1F)N1CCS(=O)(=O)CC1` [Compound 232, 4-[4-(2-{5-chloro-2-oxo-1,2-dihydrospiro[indole-3,4′-piperidin]-1′-yl}ethoxy)-2-fluorobenzoyl]-1λ^6-thiomorpholine-1,1-dione], the AC50 is 1010 nM.
`CS(=O)(=O)C1CN(C(=O)c2ccc(OCCN3CCC4(CC3)C(=O)Nc3ccc(Cl)cc34)cc2F)C1` [Compound 233, 5-chloro-1′-{2-[3-fluoro-4-(3-methanesulfonyl-azetidine-1-carbonyl)phenoxy]ethyl}-1,2-dihydrospiro[indole-3,4′-piperidin]-2-one]: the AC50 came to 1160 nM.
Consider `O=C(c1ccc(OCCN2CCC3(CC2)C(=O)Nc2ccc(Cl)cc23)cc1F)N1CCC1` [Compound 234, 1′-{2-[4-(azetidine-1-carbonyl)-3-fluorophenoxy]ethyl}-5-chloro-1,2-dihydrospiro[indole-3,4′-piperidin]-2-one], for which the AC50 turned out to be 786 nM.
Take `O=C(c1ccc(OCCN2CCC3(CC2)C(=O)Nc2ccc(Cl)cc23)cc1F)N1CC(O)C1` [Compound 235, 5-chloro-1′-{2-[3-fluoro-4-(3-hydroxyazetidine-1-carbonyl)phenoxy]ethyl}-1,2-dihydrospiro[indole-3,4′-piperidin]-2-one]: the AC50 turned out to be 1000 nM.
Turning to `NC1CN(C(=O)c2ccc(OCCN3CCC4(CC3)C(=O)Nc3ccc(Cl)cc34)cc2F)C1` [Compound 236, 1′-{2-[4-(3-aminoazetidine-1-carbonyl)-3-fluorophenoxy]ethyl}-5-chloro-1,2-dihydrospiro[indole-3,4′-piperidin]-2-one], the AC50 is 634 nM.
Take `CS(=O)(=O)NC1CN(C(=O)c2ccc(OCCN3CCC4(CC3)C(=O)Nc3ccc(Cl)cc34)cc2F)C1` [Compound 237, N-{1-[4-(2-{5-chloro-2-oxo-1,2-dihydrospiro[indole-3,4′-piperidin]-1′-yl}ethoxy)-2-fluorobenzoyl]azetidin-3-yl} methanesulfonamide]: the AC50 was determined as 3310 nM.
As to `N#Cc1ccc2c(c1)C1(CCN(CCOc3ccc(C(N)=O)c(F)c3)CC1)C(=O)N2` [Compound 238, 4-(2-{5-cyano-2-oxo-1,2-dihydrospiro[indole-3,4′-piperidin]-1′-yl}ethoxy)-2-fluorobenzamide], the AC50 was 285 nM.
Take `O=C(c1ccc(OCCN2CCC3(CC2)C(=O)Nc2ccc(Cl)cc23)cc1F)N1CC2(C1)CS(=O)(=O)C2` [Compound 239, 6-[4-(2-{5-chloro-2-oxo-1,2-dihydrospiro[indole-3,4′-piperidin]-1′-yl}ethoxy)-2-fluorobenzoyl]-2λ^6-thia-6-azaspiro[3.3]heptane-2,2-dione]: the AC50 turned out to be 1540 nM.
Next, `Cc1n[nH]cc1-c1ccc(OCCN2CCC3(CC2)C(=O)Nc2ccc(Cl)cc23)cc1` [Compound 244, 5-chloro-1′-{2-[4-(5-methyl-1H-pyrazol-4-yl)phenoxy]ethyl}-1,2-dihydrospiro[indole-3,4′-piperidin]-2-one]: 1060 nM; `CNC(=O)N1CCc2cc(OCCN3CCC4(CC3)C(=O)Nc3ccc(Cl)cc34)ccc2C1` [Compound 245, 6-(2-{5-chloro-2-oxo-1,2-dihydrospiro[indole-3,4′-piperidin]-1′-yl}ethoxy)-N-methyl-1,2,3,4-tetrahydroisoquinoline-2-carboxamide]: 718 nM.
Regarding `Cn1c(=O)[nH]c2cc(OCCN3CCC4(CC3)C(=O)Nc3ccc(Cl)cc34)cnc21` [Compound 247, 5-chloro-1′-[2-({3-methyl-2-oxo-1H,2H,3H-imidazo[4,5-b]pyridin-6-yl}oxy)ethyl]-1,2-dihydrospiro[indole-3,4′-piperidin]-2-one], the AC50 amounted to 806 nM.
On to `O=C1Nc2ccc(Cl)cc2C12CCN(CCOc1ccc(S(=O)(=O)C3(CO)CC3)nc1)CC2` [Compound 248, 5-chloro-1′-{2-[(6-{[1-(hydroxymethyl)cyclopropyl]sulfonyl}pyridin-3-yl)oxy]ethyl}-1,2-dihydrospiro[indole-3,4′-piperidin]-2-one], for which the AC50 was 820 nM.
As to `NC(=O)c1ccc(OCCN2CCC3(CC2)C(=O)Nc2ccc(Cl)cc23)cc1C(F)F` [Compound 249, 4-(2-{5-chloro-2-oxo-1,2-dihydrospiro[indole-3,4′-piperidin]-1′-yl}ethoxy)-2-(difluoromethyl)benzamide], the AC50 was found to be 433 nM.
Next, `N#Cc1ccc2c(c1)C1(CCN(CCOc3ccc(C(N)=O)c(C(F)F)c3)CC1)C(=O)N2` [Compound 250, 4-(2-{5-cyano-2-oxo-1,2-dihydrospiro[indole-3,4′-piperidin]-1′-yl}ethoxy)-2-(difluoromethyl)benzamide]: 559 nM.
With `CN1C(=O)C2(CCN(CCOc3ccc(C4(S(C)(=O)=O)COC4)cc3)CC2)c2cc(C#N)ccc21` [Compound 251, 1′-{2-[4-(3-methanesulfonyloxetan-3-yl)phenoxy]ethyl}-1-methyl-2-oxo-1,2-dihydrospiro[indole-3,4′-piperidine]-5-carbonitrile], the AC50 amounted to 546 nM.
Take `CN(C)C(=O)C1(c2ccc(OCCN3CCC4(CC3)C(=O)Nc3ccc(C#N)cc34)cc2)COC1` [Compound 254, 3-[4-(2-{5-cyano-2-oxo-1,2-dihydrospiro[indole-3,4′-piperidin]-1′-yl}ethoxy)phenyl]-N,N-dimethyloxetane-3-carboxamide]: the AC50 worked out at 898 nM.
Consider `CNC(=O)C1(c2ccc(OCCN3CCC4(CC3)C(=O)Nc3ccc(C#N)cc34)cc2)COC1` [Compound 255, 3-[4-(2-{5-cyano-2-oxo-1,2-dihydrospiro[indole-3,4′-piperidin]-1′-yl}ethoxy)phenyl]-N-methyloxetane-3-carboxamide], for which the AC50 was found to be 2640 nM.
For `O=C(c1c(F)cc(OCCN2CCC3(CC2)C(=O)Nc2ccc(Cl)cc23)cc1F)N1CCS(=O)(=O)CC1` [Compound 259, 4-[4-(2-{5-chloro-2-oxo-1,2-dihydrospiro[indole-3,4′-piperidin]-1′-yl}ethoxy)-2,6-difluorobenzoyl]-1λ^6-thiomorpholine-1,1-dione], the AC50 worked out at 651 nM.
Consider `CN1C(=O)C2(CCN(CCOc3cc(F)c(C(=O)N4CCS(=O)(=O)CC4)c(F)c3)CC2)c2cc(C#N)ccc21` [Compound 260, 1′-{2-[4-(1,1-dioxo-1λ^6-thiomorpholine-4-carbonyl)-3,5-difluorophenoxy]ethyl}-1-methyl-2-oxo-1,2-dihydrospiro[indole-3,4′-piperidine]-5-carbonitrile], for which the AC50 was 1380 nM.
Next, `CN1C(=O)C2(CCN(CCOc3ccc(C(=O)N4CCS(=O)(=O)CC4)c(C(F)(F)F)c3)CC2)c2cc(C#N)ccc21` [Compound 261, 1′-{2-[4-(1,1-dioxo-1λ^6-thiomorpholine-4-carbonyl)-3-(trifluoromethyl)phenoxy]ethyl}-1-methyl-2-oxo-1,2-dihydrospiro[indole-3,4′-piperidine]-5-carbonitrile]: 1460 nM; `CS(=O)(=O)c1ccc(OCCN2CCC3(CC2)C(=O)N(CCO)c2ccc(Cl)cc23)cc1C(F)F` [Compound 265, 5-chloro-1′-{2-[3-(difluoromethyl)-4-methanesulfonylphenoxy]ethyl}-1-(2-hydroxyethyl)-1,2-dihydrospiro[indole-3,4′-piperidin]-2-one]: 697 nM.
Next, `CS(=O)(=O)c1ccc(OCCN2CCC3(CC2)C(=O)N(CCO)c2ccc(C#N)cc23)cc1C(F)F` [Compound 266, 1′-{2-[3-(difluoromethyl)-4-methanesulfonylphenoxy]ethyl}-1-(2-hydroxyethyl)-2-oxo-1,2-dihydrospiro[indole-3,4′-piperidine]-5-carbonitrile]: 862 nM; `O=C(c1ccc(OCCN2CCC3(CC2)C(=O)Nc2ccc(Cl)cc23)cc1C(F)(F)F)N1CCS(=O)(=O)CC1` [Compound 272, 4-[4-(2-{5-chloro-2-oxo-1,2-dihydrospiro[indole-3,4′-piperidin]-1′-yl}ethoxy)-2-(trifluoromethyl)benzoyl]-1λ^6-thiomorpholine-1,1-dione]: 921 nM; `CS(=O)(=O)N1CC2(CN(C(=O)c3ccc(OCCN4CCC5(CC4)C(=O)Nc4ccc(Cl)cc45)cc3F)C2)C1` [Compound 273, 5-chloro-1′-[2-(3-fluoro-4-{6-methanesulfonyl-2,6-diazaspiro[3.3]heptane-2-carbonyl}phenoxy)ethyl]-1,2-dihydrospiro[indole-3,4′-piperidin]-2-one]: 2100 nM.
